Measurements reported in patent publication US20140039018A1 (priority 2011, published 2014).
≈ marks a conversion by molar mass, not a printed value. Like-named read-outs stand apart in the source and are kept apart here.

What was measured:
[1] = tested on: Fusarium graminearum H-3 strain; format: in vivo, barley; conditions: 18% wettable powder, 2000-fold dilution, 1500 L/ha, once in browning stage
[2] = tested on: Fusarium graminearum H-3 strain; format: in vivo, wheat
[3] = tested on: Fusarium graminearum Fg15 strain; format: cell-based; conditions: 25° C., 1 week
[4] = tested on: Fusarium graminearum Fg15 strain; experiment: microbe, parasite or virus in culture; format: cell-based; conditions: FG15STRAIN, read-out: MIC value (minimum inhibition concentration)

CC1(C)CCC(Cc2ccc(Cl)cc2)C1(O)Cn1cncn1 (stereo not shown) [metconazole]
DON accumulation level in barley grain at the time of cropping [1]: 704 ppb | DON accumulation level in barley grain after storage for a half year ([1]; room temperature storage for a half year after cropping): 407 ppb | mycotoxin (DON) in wheat grains versus grain cropped without application ([2]; 18% wettable powder, 2000-fold dilution, 1500 L/ha, once in yellowing stage or each once in flowering and yellowing stage, 2 weeks after cropping, FIG. 2): significantly smaller amount of the toxin | accumulation of the toxin in wheat grains after cropping ([2]; application in the pre-cropping yellowing stage): inhibited | toxin (DON) amount per cell weight versus medium containing no metconazole ([3]; PDA medium containing metconazole at 0.1 ppm): significantly smaller | toxin (DON) amount per cell weight versus medium containing no metconazole ([3]; PDA medium containing metconazole at 0.2 ppm): significantly smaller | MIC [4]: 1.56 µg/mL (≈ 4.88 µM)
